Here are results for one molecule from patent US20100173915A1, “PHARMACEUTICAL COMPOSITIONS FOR THE TREATMENT OF CHRONIC HEART FAILURE COMPRISING PYRAZOLOPYRIMIDINONE DERIVATIVE COMPOUND” (DONG-A PHARMACEUTICAL. CO., LTD, priority 2007, published 2010).

Series [1] concerns chronic heart failure-induced rats (abdominal aorta-to-inferior vena cava fistula). Briefly: M-mode echocardiography in aortocaval fistula rat model of chronic heart failure. Type of series: in vivo, Sprague-Dawley rats. Particulars: CHF rats, 30 mg/kg orally for 8 weeks, mean±SD. The protocol: (§1) Male Sprague-Dawley rats, weighing 220-240 g, were randomly divided into three groups: a normal control group (Normal), a heart failure control group (CHF) and a treatment group (CHF plus cpd.1), each group consisting of seven rats. The pyrazolopyrimidinone derivative was orally administered to heart failure-developed animals of the treatment group in a dose of 30 mg/kg. Normal control animals were subjected to a sham operation. […] After 8 weeks, 5 ml/kg of a solvent was orally administered to the normal control and heart failure control groups for 8 weeks, and the pyrazolopyrimidinone derivative was orally administered to the treatment group at a dose of 30 mg/kg for 8 weeks. Then, rats were anesthetized with pentobarbital (50 mg/kg, i.p.), and subjected to M-mode echocardiography in order to evaluate interventricular septum wall thickness (IWT) at end-systole (S) and end-diastole (D) of the left ventricle, posterior left ventricular wall thickness (PWT), left ventricular end-systolic dimension (LVESD), and left ventricular end-diastolic dimension (LVEDD). The relative wall thickness (RWT) was calculated according to the following equation: [IWT(D)+PWT(D)]/LVEDD, and is given in Table 1, below.

The nature of series [2]: In vivo half-life compared to sildenafil. Particulars: longer than sildenafil.
The target in series [3] is phosphodiesterase-5 (PDE-5) (Homo sapiens, UniProt O76074). The conditions noted are these: cited from earlier work.
Series [4] deals with collagen deposition (ventricular fibrosis). The series is described as follows: Collagen deposition in left ventricular tissue (Masson's trichrome) as marker of ventricular fibrosis. The conditions noted are these: CHF rats, 30 mg/kg orally for 8 weeks, mean±SD, CHF control 0.928±0.228, normal 0.384±0.103. It counts as in vivo, Sprague-Dawley rats. The protocol:
(§2) Male Sprague-Dawley rats, weighing 220-240 g, were randomly divided into three groups: a normal control group
(§3) (Normal), a heart failure control group (CHF) and a treatment group (CHF plus cpd.1), each group consisting of seven rats. The pyrazolopyrimidinone derivative was orally administered to heart failure-developed animals of the treatment group in a dose of 30 mg/kg.
as §1, with “Normal” for “Male Sprague-Dawley rats, weighing 220-240 g, were randomly divided into three groups: a normal control group (Normal), a heart failure control group (CHF) and a treatment group (CHF plus cpd.1), each group consisting of seven rats. The pyrazolopyrimidinone derivative was orally administered to heart failure-developed animals of the treatment group in a dose of 30 mg/kg. Normal”
(§4) After the echocardiographic measurements, blood samples were collected from abdominal aortas to prepare serum samples. […] All values are expressed as mean±SD.

The next series concerns ANP mRNA. Briefly: ANP mRNA levels in left ventricular tissue by RT-PCR. Type of series: in vivo, Sprague-Dawley rats. Particulars: CHF rats, 30 mg/kg orally for 8 weeks, mean±SD, CHF control 0.963±0.114, normal 0.607±0.169. The protocol:
as §2, §3
as §1, with “Normal” for “Male Sprague-Dawley rats, weighing 220-240 g, were randomly divided into three groups: a normal control group (Normal), a heart failure control group (CHF) and a treatment group (CHF plus cpd.1), each group consisting of seven rats. The pyrazolopyrimidinone derivative was orally administered to heart failure-developed animals of the treatment group in a dose of 30 mg/kg. Normal”
as §4

A short description of series [5]: Physicochemical properties: pKa.
Series [6] can be described thus: Physicochemical properties: solubility.
Series [7] relates to atrial natriuretic peptide (ANP). Briefly: Serum atrial natriuretic peptide (ANP) levels in heart failure rats. The conditions noted are these: CHF rats, 30 mg/kg orally for 8 weeks; mean±SD; CHF control 0.040±0.004, normal 0.029±0.003. It counts as in vivo, Sprague-Dawley rats. The protocol: as §2, §3
as §1, with “Normal” for “Male Sprague-Dawley rats, weighing 220-240 g, were randomly divided into three groups: a normal control group (Normal), a heart failure control group (CHF) and a treatment group (CHF plus cpd.1), each group consisting of seven rats. The pyrazolopyrimidinone derivative was orally administered to heart failure-developed animals of the treatment group in a dose of 30 mg/kg. Normal”
as §4

`CCCOc1ccc(S(=O)(=O)NCCC2CCCN2C)cc1-c1nc2c(CCC)nn(C)c2c(=O)[nH]1` (stereo not shown) [cpd.1, 5-[2-propyloxy-5-(1-methyl-2-pyrrolidinyleneamidosulfonyl)phenyl]-1-methyl-propyl-1,6-dihydro-7H-pyrazolo(4,3-d)pyrimidine-7-one]: the “RWT, relative wall thickness [IWT(D)+PWT(D)]/LVEDD” value in series [1] (CHF control 0.34 ± 0.02, normal 0.42 ± 0.05) is given as 0.42 ± 0.05. Moreover, the “IWT(D), interventricular septum wall thickness at end-diastole” value in series [1] (CHF control 1.56 ± 0.09, normal 1.81 ± 0.20) is listed as 1.74 ± 0.13 mm. Besides, the “PWT(D), posterior left ventricular wall thickness at end-diastole” value in series [1] (CHF control 1.64 ± 0.11, normal 1.83 ± 0.13) is listed as 1.78 ± 0.04 mm. For the same molecule, in series [1] (CHF control 2.54 ± 0.18, normal 2.89 ± 0.15), the “PWT(S), posterior left ventricular wall thickness at end-systole” value is reported as 2.80 ± 0.10 mm. The “IWT(S), interventricular septum wall thickness at end-systole” value in series [1] (CHF control 2.56 ± 0.11, normal 2.83 ± 0.17) is listed as 2.74 ± 0.11 mm. Also, in series [1] (CHF control 6.20 ± 0.70, normal 5.43 ± 0.31), the “LVESD, left ventricular end-systolic dimension” value is listed as 4.68 ± 0.38 mm. Moreover, the “LVEDD, left ventricular end-diastolic dimension” value in series [1] (CHF control 9.75 ± 0.85, normal 8.69 ± 0.56) is listed as 8.45 ± 0.62 mm. Also, in series [2], the “in vivo half-life relative to sildenafil” value was 3 times. For the same molecule, in series [3], the “inhibitory activity against PDE-5” value is “strong and selective inhibitory activity”. Moreover, the “amount of collagen deposition in ventricular tissue” value in series [4] turned out to be 0.604±0.214. Further, the “ANP mRNA levels in left ventricular tissues” value with ANP mRNA was 0.739±0.120. In series [5], the pKa1 result is “about 6.5” and the pKa2 result was “about 12.5”. The “solubility in acetic acid, methanol and chloroform” value in series [6] (acetic acid, methanol and chloroform) was “readily dissolved”. The solubility in water result in series [6] (water) is listed as “difficult to dissolve in water”. Further, the “serum ANP levels” value in series [7] amounted to 0.033 ± 0.003 ng/mL.
